# Experimental data as given in patent US11534457B2, “Use of dextran sulfate” (priority 2017, dated 2022).
# System: severe traumatic brain injury (sTBI)
# Assay: sTBI in rats, brain gene expression arrays and pathway analysis (Example 9)
# Type: in vivo, Male Wistar rats
# Settings: TBI + 5 mg/kg LMW-DS
# Method: The experimental protocol used in this study was approved by the Ethical Committee of the Catholic University of Rome, according to international standards and guidelines for animal care. Male Wistar rats of 300-350 g body weight were fed with standard laboratory diet and water ad libitum in a controlled environment. As the anesthetic mixture, the animals received 35 mg/kg b.w. ketamine and 0.25 mg/kg body weight midazolam by i.p. injection. Severe traumatic brain injury (sTBI) was induced by dropping a 450 g weight from 2 m height on to the rat head that had been protected by a metal disk previously fixed on the skull, according to the “weight drop” impact acceleration model (Marmarou et al., A new model of diffuse brain injury in rats. Part I: Pathophysiology and biomechanics. J Neurosurg. 1994; 80: 291-300). […] At the end of each period of treatment, rats were anesthetized again and then immediately sacrificed.
# LMW-DS (Tikomed AB) was provided at a stock concentration of 20 mg/ml and was kept in a temperature-monitored refrigerator at 4° C. LMW-DS aliquots were diluted to the appropriate dosing concentration in sterile saline prior to delivery of a single subcutaneous injection.
# Three doses of LMW-DS were administered subcutaneously 30 minutes post-TBI. The animals were sacrificed at 2 days post-TBI. The animals were divided into the following subgroups:
# Three doses of LMW-DS were administered subcutaneously 30 minutes post-TBI. The animals were sacrificed at 7 days post-TBI. The animals were divided into the following subgroups:
# An in vivo craniectomy was performed on all animals during anesthesia. After carefully removing the rat's skull, the brain was exposed and removed with a surgical spatula and quickly dropped in RNALater and preserved at 4° C. for further processing.
# RNA extraction and array processing was carried out by SourceBioscience. The arrays used were the Agilent Rat expression arrays.
# Statistical analysis was carried out using the Metaboanalyst software package. Gene expression changes of 10% with a p<0.05 were regarded as significant.
# Pathway analysis of the differentially regulated genes was carried out using the Ingenuity pathway analysis package. The analysis was performed with special reference to pathways and molecular processes and diseases associated with neurodegenerative disease, including dementia, Alzheimer's disease, ALS, TBI and stroke, and with scarring and fibrosis, including glaucoma and normal pressure hydrocephalus (NPH) after subarachnoid haemorrhage.
substance,measurement,setting,value
low molecular weight dextran sulfate [LMW-DS],Diseases or functions annotation: Apoptosis,2 days after TBI,Activated
same,Diseases or functions annotation: Behavior,2 days after TBI,Inhibited
same,Diseases or functions annotation: Carcinoma,2 days after TBI,Inhibited
same,Diseases or functions annotation: Cell death,2 days after TBI,Activated
same,Diseases or functions annotation: Cell death of antigen presenting cells,2 days after TBI,Inhibited
same,Diseases or functions annotation: Cell death of immune cells,2 days after TBI,Inhibited
same,Diseases or functions annotation: Cell death of tumor cell lines,2 days after TBI,Inhibited
same,Diseases or functions annotation: Cell movement,2 days after TBI,Inhibited
same,Diseases or functions annotation: Cell movement of tumor cell lines,2 days after TBI,Inhibited
same,Diseases or functions annotation: Cell proliferation of leukocyte cell lines,2 days after TBI,Inhibited
same,Diseases or functions annotation: Cellular homeostasis,2 days after TBI,Inhibited
same,Diseases or functions annotation: Chemotaxis,2 days after TBI,Inhibited
same,Diseases or functions annotation: Concentration of prostaglandin,2 days after TBI,Inhibited
same,Diseases or functions annotation: Development of vasculature,2 days after TBI,Inhibited
same,Diseases or functions annotation: Digestive organ tumor,2 days after TBI,Inhibited
same,Diseases or functions annotation: Digestive system cancer,2 days after TBI,Inhibited
same,Diseases or functions annotation: Edema,2 days after TBI,Activated
same,Diseases or functions annotation: Epithelial neoplasm,2 days after TBI,Inhibited
same,Diseases or functions annotation: Extracranial solid tumor,2 days after TBI,Inhibited
same,Diseases or functions annotation: Feeding,2 days after TBI,Inhibited
same,Diseases or functions annotation: Growth of tumor,2 days after TBI,Inhibited
same,Diseases or functions annotation: Hematologic cancer,2 days after TBI,Inhibited
same,Diseases or functions annotation: Incidence of tumor,2 days after TBI,Inhibited
same,Diseases or functions annotation: Leukocyte migration,2 days after TBI,Inhibited
same,Diseases or functions annotation: Leukopoiesis,2 days after TBI,Inhibited
same,Diseases or functions annotation: Locomotion,2 days after TBI,Inhibited
same,Diseases or functions annotation: Lymphocyte homeostasis,2 days after TBI,Inhibited
same,Diseases or functions annotation: Lymphocytic cancer,2 days after TBI,Inhibited
same,Diseases or functions annotation: Lymphocytic neoplasm,2 days after TBI,Inhibited
same,Diseases or functions annotation: Lymphopoiesis,2 days after TBI,Inhibited
same,Diseases or functions annotation: Lymphoproliferative disorder,2 days after TBI,Inhibited
same,Diseases or functions annotation: Malignant solid tumor,2 days after TBI,Inhibited
same,Diseases or functions annotation: Metabolism of hormone,2 days after TBI,Inhibited
same,Diseases or functions annotation: Migration of cells,2 days after TBI,Inhibited
same,Diseases or functions annotation: Necrosis,2 days after TBI,Inhibited
same,Diseases or functions annotation: Neoplasia of leukocytes,2 days after TBI,Inhibited
same,Diseases or functions annotation: Non-melanoma solid tumor,2 days after TBI,Inhibited
same,Diseases or functions annotation: Proliferation of hematopoietic progenitor cells,2 days after TBI,Inhibited
same,Diseases or functions annotation: Quantity of cells,2 days after TBI,Inhibited
same,Diseases or functions annotation: Quantity of epithelial tissue,2 days after TBI,Inhibited
same,Diseases or functions annotation: Quantity of neuroglia,2 days after TBI,Inhibited
same,Diseases or functions annotation: Resorption of bone,2 days after TBI,Inhibited
same,Diseases or functions annotation: Secretion of molecule,2 days after TBI,Activated
same,Diseases or functions annotation: Size of body,2 days after TBI,Inhibited
same,Diseases or functions annotation: Synthesis of hormone,2 days after TBI,Inhibited
same,Diseases or functions annotation: Transcription of RNA,2 days after TBI,Inhibited
same,Diseases or functions annotation: Transport of molecule,2 days after TBI,Activated
same,Diseases or functions annotation: Vasculogenesis,2 days after TBI,Inhibited
same,Ingenuity canonical pathway: Acute Phase Response Signaling,7 days after TBI,Activated
same,Ingenuity canonical pathway: Adrenomedullin signaling pathway,7 days after TBI,Inhibited
same,Ingenuity canonical pathway: Cardiac Hypertrophy Signaling,7 days after TBI,Activated
same,Ingenuity canonical pathway: Colorectal Cancer Metastasis Signaling,7 days after TBI,Inhibited
same,Ingenuity canonical pathway: Dendritic Cell Maturation,7 days after TBI,Activated
same,Ingenuity canonical pathway: ERK5 Signaling,7 days after TBI,Inhibited
same,Ingenuity canonical pathway: ERK/MAPK Signaling,7 days after TBI,Activated
same,Ingenuity canonical pathway: Endothelin-1 Signaling,7 days after TBI,Activated
same,Ingenuity canonical pathway: Fcγ Receptor-mediated Phagocytosis in Macrophages and Monocytes,7 days after TBI,Activated
same,Ingenuity canonical pathway: GNRH Signaling,7 days after TBI,Activated
same,Ingenuity canonical pathway: HMGB1 Signaling,7 days after TBI,Activated
same,Ingenuity canonical pathway: IL-1 Signaling,7 days after TBI,Activated
same,Ingenuity canonical pathway: IL-6 Signaling,7 days after TBI,Activated
same,Ingenuity canonical pathway: IL-8 Signaling,7 days after TBI,Activated
same,Ingenuity canonical pathway: ILK Signaling,7 days after TBI,Activated
same,Ingenuity canonical pathway: Leukocyte Extravasation Signaling,7 days after TBI,Activated
same,Ingenuity canonical pathway: Neuroinflammation Signaling Pathway,7 days after TBI,Activated
same,Ingenuity canonical pathway: Osteoarthritis Pathway,7 days after TBI,Inhibited
same,Ingenuity canonical pathway: PI3K Signaling in B Lymphocytes,7 days after TBI,Activated
same,Ingenuity canonical pathway: PKCθ Signaling in T Lymphocytes,7 days after TBI,Activated
same,Ingenuity canonical pathway: PPAR Signaling,7 days after TBI,Inhibited
same,Ingenuity canonical pathway: Phospholipase C Signaling,7 days after TBI,Activated
same,Ingenuity canonical pathway: Production of Nitric Oxide and Reactive Oxygen Species in Macrophages,7 days after TBI,Activated
same,Ingenuity canonical pathway: Protein Kinase A Signaling,7 days after TBI,Inhibited
same,Ingenuity canonical pathway: Role of NFAT in Regulation of the Immune Response,7 days after TBI,Activated
same,Ingenuity canonical pathway: Signaling by Rho Family GTPases,7 days after TBI,Activated
same,Ingenuity canonical pathway: Synaptic Long Term Depression,7 days after TBI,Activated
same,Ingenuity canonical pathway: Wnt/β-catenin Signaling,7 days after TBI,Inhibited
same,Ingenuity canonical pathway: cAMP-mediated signaling,7 days after TBI,Inhibited
same,Ingenuity canonical pathway: mTOR Signaling,7 days after TBI,Activated
same,z score: Abdominal adenocarcinoma,7 days after TBI,0.73
same,z score: Abdominal cancer,7 days after TBI,−0.474
same,z score: Abdominal carcinoma,7 days after TBI,−0.831
same,z score: Abdominal neoplasm,7 days after TBI,0.061
same,z score: Adenocarcinoma,7 days after TBI,−0.155
same,z score: Angiogenesis,7 days after TBI,0.294
same,z score: Apoptosis,7 days after TBI,−0.676
same,z score: Apoptosis of tumor cell lines,7 days after TBI,−0.941
same,z score: Bleeding,7 days after TBI,−2.118
same,z score: Breast or colorectal cancer,7 days after TBI,−1.953
same,z score: Breast or ovarian cancer,7 days after TBI,−1.953
same,z score: Breast or pancreatic cancer,7 days after TBI,−1.026
same,z score: Cancer,7 days after TBI,0.905
same,z score: Cancer of cells,7 days after TBI,0.742
same,z score: Cancer of secretory structure,7 days after TBI,0.64
same,z score: Carcinoma,7 days after TBI,−0.403
same,z score: Cell cycle progression,7 days after TBI,1.58
same,z score: Cell death,7 days after TBI,0.791
same,z score: Cell death of epithelial cells,7 days after TBI,1.993
same,z score: Cell death of tumor cell lines,7 days after TBI,−0.811
same,z score: Cell movement,7 days after TBI,2.297
same,z score: Cell movement of endothelial cells,7 days after TBI,2.084
same,z score: Cell movement of myeloid cells,7 days after TBI,3.907
same,z score: Cell movement of tumor cell lines,7 days after TBI,1.492
same,z score: Cell survival,7 days after TBI,1.966
same,z score: Cell viability,7 days after TBI,1.879
same,z score: Cell viability of tumor cell lines,7 days after TBI,0.991
